According to paper PMC4138103 (PLoS ONE, 2014):
Read-outs that look alike come from different tables or passages of the source.

System: Sprague-Dawley rats
Assay: Organ weights
Assay type: in vivo, Rattus norvegicus
Parameters: key to Dose response, Ovaries weight: D: significant dose response (for results see Table 2 in the text); T: significant trend
Conditions: for Emax: Rattus norvegicus; for Organ weight, Adrenals / Organ weight, Brain / Organ weight, Heart / Organ weight, Kidneys / Organ weight, Ovaries / Organ weight, Pituitary / Organ weight, Spleen / Organ weight, Thymus / Organ weight, Thyroid gland / Organ weight, Uterus: group mean
Description: At the end of the treatment period (males on study day 28–31, females on study day 28–32) the rats were anesthetized with CO2/O2 (70/30%). Blood samples were drawn from the left ventricle using Venoject needles (Terumo) and Vacuette EDTA and serum blood collection tubes, and the rats were killed by exsanguination. EDTA blood was used for hematology investigations (see below). Serum was separated, divided into aliquots, frozen in liquid nitrogen and stored at −70°C for further analysis (see below). A complete necropsy (macroscopic observations, tissue sampling for molecular biology, biochemistry, histopathology, analytical chemistry and organ weights) was performed on each rat. The weights of the following organs were recorded: adrenals, brain, epididymides, heart, kidneys, liver, lungs, ovaries, pituitary, prostate (ventral), seminal vesicles, spleen, testes, thymus, thyroids (with parathyroids) and uterus. For molecular biology and biochemical analyses samples from brain, liver, kidney, bones, and several other tissues were snap frozen in liquid nitrogen and stored at −80°C for further analysis. […] Tissue samples for histopathology were preserved in 10% neutral buffered formalin except testis and epididymis, which were fixed in Bouin's solution for 24 h after which they were transferred into 70% ethanol.
Data were also analyzed using the BMD method, which is based on dose-response modeling of the full data set using a nested family of exponential and Hill models. The analyses were done on data of males and females combined, using sex as a covariate. […] In that case, different Critical Effect Doses (CEDs) and CEDs at the lowest bound of the confidence interval (CED-L) were generated for each sex. If no difference between sexes is detected, a CED and CED-Ls for the combined data is generated. However, this was also done if the curve fits are close, and separate analyses for males and females were then performed manually. CEDs and CED-Ls were calculated at the predefined Critical Effect Size (CES) of 5% (EFSA standard) or 10%.

[1] = F, CES 5%, model E2, adipose tissue concentration based
[2] = F, CES 5%, model E4, adipose tissue concentration based
[3] = F, CES 10%, model E2, adipose tissue concentration based
[4] = F, CES 10%, model E4, adipose tissue concentration based
[5] = M, CES 5%, model E2, adipose tissue concentration based
[6] = M, CES 5%, model E4, adipose tissue concentration based
[7] = M, CES 10%, model E2, adipose tissue concentration based
[8] = M, CES 10%, model E4, adipose tissue concentration based
[9] = females, total dose 0-1700 mg/kg bw
[10] = females, CES 5%, total dose based
[11] = females, CES 10%, total dose based
[12] = females, adipose tissue concentration based
[13] = females, total dose 10 mg/kg bw
[14] = females, total dose 30 mg/kg bw
[15] = females, total dose 100 mg/kg bw
[16] = females, total dose 300 mg/kg bw
[17] = females, total dose 1000 mg/kg bw

## Clc1cc(Cl)c(-c2cc(Cl)c(Cl)c(Cl)c2Cl)cc1Cl [PCB 180, 2,2′,3′,4,4′,5,5′-heptachlorobiphenyl]
[1]
  CED, Thyroid gland weight: 3010 µg/g lipid
  CED-L, Thyroid gland weight: 1698 µg/g lipid
[2]
  CED, Liver weight: 512 µg/g lipid
  CED, Ovaries weight: 201 µg/g lipid
  CED-L, Liver weight: 263 µg/g lipid
  CED-L, Ovaries weight: 31.7 µg/g lipid
[3]
  CED, Thyroid gland weight: 6190 µg/g lipid
  CED-L, Thyroid gland weight: 3488 µg/g lipid
[4]
  CED, Liver weight: 1090 µg/g lipid
  CED, Ovaries weight: 510 µg/g lipid
  CED-L, Liver weight: 565 µg/g lipid
  CED-L, Ovaries weight: 79.6 µg/g lipid
[5]
  CED, Thyroid gland weight: 1030 µg/g lipid
  CED-L, Thyroid gland weight: 720 µg/g lipid
[6]
  CED, Liver weight: 42.3 µg/g lipid
  CED-L, Liver weight: 19.8 µg/g lipid
[7]
  CED, Thyroid gland weight: 2010 µg/g lipid
  CED-L, Thyroid gland weight: 1407 µg/g lipid
[8]
  CED, Liver weight: 88.4 µg/g lipid
  CED-L, Liver weight: 41.3 µg/g lipid
F, model E2, controls vs high dose according to the fitted model, read-out: Maximum response, Relative thyroid gland weight
  Emax: -16.5%
F, model E2, controls vs high dose according to the fitted model, read-out: Maximum response, Thyroid gland weight
  Emax: -17.6%
F, model E4, controls vs high dose according to the fitted model, read-out: Maximum response, Liver weight
  Emax: 43.1%
F, model E4, controls vs high dose according to the fitted model, read-out: Maximum response, Ovaries weight
  Emax: 17%
F, model E4, controls vs high dose according to the fitted model, read-out: Maximum response, Relative liver weight
  Emax: 44.8%
females, controls vs high dose, fitted model, read-out: Liver weight, Maximum response
  Emax: 45%
females, controls vs high dose, fitted model, read-out: Ovaries weight, Maximum response
  Emax: 17%
females, controls vs high dose, fitted model, read-out: Relative liver weight, Maximum response
  Emax: 46.2%
females, controls vs high dose, fitted model, read-out: Relative thyroid gland weight, Maximum response
  Emax: -17%
females, controls vs high dose, fitted model, read-out: Thyroid gland weight, Maximum response
  Emax: -17.9%
males, controls vs high dose, fitted model, read-out: Liver weight, Maximum response
  Emax: 66%
males, controls vs high dose, fitted model, read-out: Relative liver weight, Maximum response
  Emax: 67%
males, controls vs high dose, fitted model, read-out: Relative thymus weight, Maximum response
  Emax: 17.1%
males, controls vs high dose, fitted model, read-out: Relative thyroid gland weight, Maximum response
  Emax: 45.2%
F, model E5, controls vs high dose according to the fitted model, read-out: Maximum response, Relative ovaries weight
  Emax: 16%
Model E2, controls vs high dose according to the fitted model, read-out: Maximum response, Relative thymus weight
  Emax: 17.6%
Model E2, controls vs high dose according to the fitted model, read-out: Maximum response, Relative thyroid gland weight
  Emax: 45.7%
Model E2, controls vs high dose according to the fitted model, read-out: Maximum response, Thyroid gland weight
  Emax: 41.9%
Model E4, controls vs high dose according to the fitted model, read-out: Maximum response, Liver weight
  Emax: 65%
Model E4, controls vs high dose according to the fitted model, read-out: Maximum response, Relative liver weight
  Emax: 66%
females
  Thyroid weight, max. decrease: 18%
[9]
  Dose response, Ovaries weight: D
  Dose response, Thyroid gland weight: D, T
[10]
  Liver weight, CED: 225 mg/kg bw
  Liver weight, CED-L: 188 mg/kg bw
  Ovaries weight, CED: 46.8 mg/kg bw
  Ovaries weight, CED-L: 6.15 mg/kg bw
  Thyroid gland weight, CED: 443 mg/kg bw
  Thyroid gland weight, CED-L: 257 mg/kg bw
[11]
  Liver weight, CED: 439 mg/kg bw
  Liver weight, CED-L: 368 mg/kg bw
  Ovaries weight, CED: 120 mg/kg bw
  Ovaries weight, CED-L: 15.4 mg/kg bw
  Thyroid gland weight, CED: 910 mg/kg bw
  Thyroid gland weight, CED-L: 528 mg/kg bw
[12]
  Liver weight, CED: 512 µg/g lipid
  Ovary weight, CED: 201 µg/g lipid
  Thyroid weight, CED: 3010 µg/g lipid
females, controls vs high dose, fitted model
  Liver weight, Maximum response: 44.6%
females, total dose 3 mg/kg bw
  Organ weight, Adrenals: 0.0648 g
  Organ weight, Brain: 1.60 g
  Organ weight, Heart: 0.958 g
  Organ weight, Kidneys: 1.43 g
  Organ weight, Ovaries: 0.093 g
  Organ weight, Pituitary: 0.0112 g
  Organ weight, Spleen: 0.728 g
  Organ weight, Thymus: 0.528 g
  Organ weight, Thyroid gland: 0.0202 g
  Organ weight, Uterus: 0.372 g
[13]
  Organ weight, Adrenals: 0.0640 g
  Organ weight, Brain: 1.59 g
  Organ weight, Heart: 0.884 g
  Organ weight, Kidneys: 1.46 g
  Organ weight, Ovaries: 0.086 g
  Organ weight, Pituitary: 0.0124 g
  Organ weight, Spleen: 0.722 g
  Organ weight, Thymus: 0.470 g
  Organ weight, Thyroid gland: 0.0188 g
  Organ weight, Uterus: 0.492 g
[14]
  Organ weight, Adrenals: 0.0618 g
  Organ weight, Brain: 1.61 g
  Organ weight, Heart: 0.870 g
  Organ weight, Kidneys: 1.45 g
  Organ weight, Ovaries: 0.096 g
  Organ weight, Pituitary: 0.0124 g
  Organ weight, Spleen: 0.696 g
  Organ weight, Thymus: 0.494 g
  Organ weight, Thyroid gland: 0.0169 g
  Organ weight, Uterus: 0.353 g
[15]
  Organ weight, Adrenals: 0.0612 g
  Organ weight, Brain: 1.62 g
  Organ weight, Heart: 0.896 g
  Organ weight, Kidneys: 1.46 g
  Organ weight, Ovaries: 0.091 g
  Organ weight, Pituitary: 0.0122 g
  Organ weight, Spleen: 0.676 g
  Organ weight, Thymus: 0.480 g
  Organ weight, Thyroid gland: 0.0213 g
  Organ weight, Uterus: 0.368 g
[16]
  Organ weight, Adrenals: 0.0686 g
  Organ weight, Brain: 1.60 g
  Organ weight, Heart: 0.908 g
  Organ weight, Kidneys: 1.45 g
  Organ weight, Ovaries: 0.110 g
  Organ weight, Pituitary: 0.0121 g
  Organ weight, Spleen: 0.650 g
  Organ weight, Thymus: 0.498 g
  Organ weight, Thyroid gland: 0.0176 g
  Organ weight, Uterus: 0.352 g
[17]
  Organ weight, Adrenals: 0.0641 g
  Organ weight, Brain: 1.59 g
  Organ weight, Heart: 0.896 g
  Organ weight, Kidneys: 1.49 g
  Organ weight, Ovaries: 0.103 g
  Organ weight, Pituitary: 0.0112 g
